This passage reports % of control and % of engagement results from ChEMBL document CHEMBL5465560, “Selectivity Literature for EUbOPEN Chemogenomic Library” (2024).

Assay [1] concerns the target T1, Dual serine/threonine and tyrosine protein kinase (Homo sapiens) (UniProt Q6XUX3).
T1 sequence (whole entry): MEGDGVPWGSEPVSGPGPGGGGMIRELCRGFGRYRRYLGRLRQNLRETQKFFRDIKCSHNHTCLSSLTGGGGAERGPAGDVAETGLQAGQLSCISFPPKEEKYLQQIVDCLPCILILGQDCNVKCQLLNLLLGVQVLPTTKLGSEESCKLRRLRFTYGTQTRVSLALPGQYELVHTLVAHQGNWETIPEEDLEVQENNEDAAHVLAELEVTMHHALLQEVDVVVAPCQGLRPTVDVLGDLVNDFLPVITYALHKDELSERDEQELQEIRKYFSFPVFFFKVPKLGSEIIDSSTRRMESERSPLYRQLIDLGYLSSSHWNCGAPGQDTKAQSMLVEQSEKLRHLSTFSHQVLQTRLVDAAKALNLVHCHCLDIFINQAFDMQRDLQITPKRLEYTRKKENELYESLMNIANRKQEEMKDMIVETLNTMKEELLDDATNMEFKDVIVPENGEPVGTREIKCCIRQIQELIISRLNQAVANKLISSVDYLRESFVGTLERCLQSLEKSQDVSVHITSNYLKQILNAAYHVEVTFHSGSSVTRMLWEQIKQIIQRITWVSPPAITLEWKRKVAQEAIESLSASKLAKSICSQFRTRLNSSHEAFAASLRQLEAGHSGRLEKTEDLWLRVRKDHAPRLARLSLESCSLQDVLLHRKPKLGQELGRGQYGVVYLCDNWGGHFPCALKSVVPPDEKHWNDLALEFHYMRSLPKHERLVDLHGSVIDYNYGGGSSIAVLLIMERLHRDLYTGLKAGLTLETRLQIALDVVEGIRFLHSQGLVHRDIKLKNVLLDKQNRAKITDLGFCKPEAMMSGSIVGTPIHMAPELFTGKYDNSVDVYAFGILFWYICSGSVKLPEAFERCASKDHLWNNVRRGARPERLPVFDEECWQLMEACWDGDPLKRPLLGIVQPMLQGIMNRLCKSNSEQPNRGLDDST
The assay can be described thus: Selectivity interaction (KinomeScan (DiscoverX)) EUB0000595a DSTYK. The following applies: at 10 µM.

Assay [2] concerns the target T2, Protein kinase C epsilon type (Homo sapiens) (UniProt Q02156).
T2 sequence (whole entry): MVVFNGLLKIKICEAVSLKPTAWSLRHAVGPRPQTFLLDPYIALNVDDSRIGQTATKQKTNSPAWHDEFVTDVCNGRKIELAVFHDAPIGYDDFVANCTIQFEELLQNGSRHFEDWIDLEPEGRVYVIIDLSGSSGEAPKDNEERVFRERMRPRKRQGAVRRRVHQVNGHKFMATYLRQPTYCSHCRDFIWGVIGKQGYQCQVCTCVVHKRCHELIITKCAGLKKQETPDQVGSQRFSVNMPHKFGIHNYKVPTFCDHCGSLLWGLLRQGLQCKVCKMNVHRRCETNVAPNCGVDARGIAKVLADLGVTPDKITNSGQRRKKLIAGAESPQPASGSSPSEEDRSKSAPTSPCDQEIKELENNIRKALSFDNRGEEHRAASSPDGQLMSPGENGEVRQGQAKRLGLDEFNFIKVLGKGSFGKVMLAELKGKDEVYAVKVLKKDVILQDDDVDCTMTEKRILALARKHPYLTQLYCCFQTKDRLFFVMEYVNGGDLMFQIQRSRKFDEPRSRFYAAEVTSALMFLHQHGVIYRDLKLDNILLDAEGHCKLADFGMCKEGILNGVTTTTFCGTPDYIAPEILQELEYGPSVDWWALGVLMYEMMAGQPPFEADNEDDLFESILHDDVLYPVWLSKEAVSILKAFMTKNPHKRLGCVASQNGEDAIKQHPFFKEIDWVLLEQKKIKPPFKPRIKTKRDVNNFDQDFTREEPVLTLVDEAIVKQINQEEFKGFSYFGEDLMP
The assay can be described thus: Selectivity interaction (KinomeScan (DiscoverX)) EUB0001619a PRKCE. To be noted: at 1 µM.

In assay [3] the target is T3, Serine/threonine-protein kinase TAO2 (Homo sapiens) (UniProt Q9UL54).
T3 sequence (whole entry): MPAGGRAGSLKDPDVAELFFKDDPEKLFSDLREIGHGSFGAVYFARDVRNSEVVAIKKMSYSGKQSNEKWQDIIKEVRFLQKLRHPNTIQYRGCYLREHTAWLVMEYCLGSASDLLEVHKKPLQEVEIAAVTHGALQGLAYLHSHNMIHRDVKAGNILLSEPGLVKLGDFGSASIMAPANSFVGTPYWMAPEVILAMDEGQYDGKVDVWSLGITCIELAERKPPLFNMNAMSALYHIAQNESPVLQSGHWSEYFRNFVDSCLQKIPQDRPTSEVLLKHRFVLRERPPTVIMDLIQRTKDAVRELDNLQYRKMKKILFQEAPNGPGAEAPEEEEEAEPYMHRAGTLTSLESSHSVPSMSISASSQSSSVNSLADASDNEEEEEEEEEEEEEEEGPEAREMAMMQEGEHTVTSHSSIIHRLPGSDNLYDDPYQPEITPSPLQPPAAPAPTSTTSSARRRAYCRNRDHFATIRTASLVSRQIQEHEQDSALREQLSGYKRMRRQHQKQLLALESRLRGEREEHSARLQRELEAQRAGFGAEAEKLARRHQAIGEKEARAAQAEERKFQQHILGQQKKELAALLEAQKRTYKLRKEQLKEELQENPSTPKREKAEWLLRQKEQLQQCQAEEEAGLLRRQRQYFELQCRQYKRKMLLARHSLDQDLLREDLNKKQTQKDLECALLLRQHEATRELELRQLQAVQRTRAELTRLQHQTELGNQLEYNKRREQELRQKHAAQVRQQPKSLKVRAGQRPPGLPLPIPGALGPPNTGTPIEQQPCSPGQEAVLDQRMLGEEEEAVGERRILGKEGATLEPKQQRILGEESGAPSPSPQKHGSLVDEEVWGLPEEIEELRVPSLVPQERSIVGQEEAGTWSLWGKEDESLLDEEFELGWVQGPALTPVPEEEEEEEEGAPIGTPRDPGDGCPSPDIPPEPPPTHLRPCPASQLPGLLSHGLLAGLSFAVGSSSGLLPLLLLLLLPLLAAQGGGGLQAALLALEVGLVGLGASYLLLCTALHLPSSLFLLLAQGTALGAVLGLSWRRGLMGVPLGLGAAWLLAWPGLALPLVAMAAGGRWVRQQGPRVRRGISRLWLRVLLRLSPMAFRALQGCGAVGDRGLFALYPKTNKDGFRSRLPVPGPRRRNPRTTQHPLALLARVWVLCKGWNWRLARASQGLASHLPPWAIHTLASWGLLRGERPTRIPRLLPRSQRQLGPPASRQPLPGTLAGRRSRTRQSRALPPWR
The assay can be described thus: Selectivity interaction (KinomeScan (DiscoverX)) EUB0000666a TAOK2. The following applies: at 10 µM.

For assay [4], the target named is Phosphatidylinositol 4-phosphate 3-kinase C2 domain-containing subunit beta (Homo sapiens) (UniProt O00750). In words: Selectivity interaction (Kinase panel (KiNativ target engagement assay in Jurkat cells)) EUB0001635a PIK3C2B. It counts as cell-based. The following applies: Selectivity number of off-targets 0.0, Selectivity number of targets 233.0, Source Knowledge https://www.sciencedirect.com/science/article/pii/S2451945619300674?via%3Dihub, at 1 µM.
Chain of Phosphatidylinositol 4-phosphate 3-kinase C2 domain-containing subunit beta (Homo sapiens) (O00750 whole entry, the tested form may be a part): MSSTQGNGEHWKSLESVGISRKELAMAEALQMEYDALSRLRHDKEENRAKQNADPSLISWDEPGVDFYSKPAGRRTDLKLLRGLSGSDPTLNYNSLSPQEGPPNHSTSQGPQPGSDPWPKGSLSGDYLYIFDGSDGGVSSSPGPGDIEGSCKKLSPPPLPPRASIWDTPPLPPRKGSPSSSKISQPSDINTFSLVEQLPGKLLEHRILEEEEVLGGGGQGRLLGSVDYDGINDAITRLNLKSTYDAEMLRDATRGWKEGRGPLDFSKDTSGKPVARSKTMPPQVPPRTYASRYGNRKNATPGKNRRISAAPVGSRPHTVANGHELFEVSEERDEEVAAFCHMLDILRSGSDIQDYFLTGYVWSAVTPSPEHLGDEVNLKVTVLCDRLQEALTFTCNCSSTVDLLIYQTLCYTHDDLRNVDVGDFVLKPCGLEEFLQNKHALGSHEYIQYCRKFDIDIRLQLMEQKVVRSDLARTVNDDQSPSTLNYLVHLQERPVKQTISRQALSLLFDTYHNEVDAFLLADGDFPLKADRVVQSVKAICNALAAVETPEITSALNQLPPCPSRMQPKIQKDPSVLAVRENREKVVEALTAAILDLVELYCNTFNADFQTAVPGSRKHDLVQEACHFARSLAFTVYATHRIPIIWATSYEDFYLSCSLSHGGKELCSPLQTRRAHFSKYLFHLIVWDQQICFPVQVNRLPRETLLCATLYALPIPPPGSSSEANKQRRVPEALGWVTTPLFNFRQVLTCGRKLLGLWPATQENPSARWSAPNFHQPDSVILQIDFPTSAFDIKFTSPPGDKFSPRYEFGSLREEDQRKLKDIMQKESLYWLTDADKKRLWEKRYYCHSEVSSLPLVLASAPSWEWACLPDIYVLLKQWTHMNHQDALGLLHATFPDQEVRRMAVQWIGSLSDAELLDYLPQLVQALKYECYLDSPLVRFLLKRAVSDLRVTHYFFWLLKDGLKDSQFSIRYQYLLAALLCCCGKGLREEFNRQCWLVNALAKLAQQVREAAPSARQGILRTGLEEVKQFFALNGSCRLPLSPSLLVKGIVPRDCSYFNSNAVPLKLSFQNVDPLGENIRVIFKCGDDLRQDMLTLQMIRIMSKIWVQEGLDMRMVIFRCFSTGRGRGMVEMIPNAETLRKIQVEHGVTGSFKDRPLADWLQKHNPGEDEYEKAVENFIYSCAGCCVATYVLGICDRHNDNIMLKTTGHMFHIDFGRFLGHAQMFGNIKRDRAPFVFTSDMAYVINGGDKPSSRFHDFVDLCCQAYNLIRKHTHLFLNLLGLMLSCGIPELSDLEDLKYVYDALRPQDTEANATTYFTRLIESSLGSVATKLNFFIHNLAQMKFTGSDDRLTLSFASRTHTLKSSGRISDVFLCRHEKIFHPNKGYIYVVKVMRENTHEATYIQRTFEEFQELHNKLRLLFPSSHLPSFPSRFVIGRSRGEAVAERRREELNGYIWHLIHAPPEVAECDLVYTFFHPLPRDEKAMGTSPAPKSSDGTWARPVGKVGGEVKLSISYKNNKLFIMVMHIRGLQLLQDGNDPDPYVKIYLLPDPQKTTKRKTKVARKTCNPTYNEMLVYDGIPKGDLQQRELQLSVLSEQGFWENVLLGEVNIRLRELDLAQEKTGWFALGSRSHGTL

`COCC(=O)NC/C=C/c1ccc2ncnc(Nc3ccc(Oc4ccc(C)nc4)c(C)c3)c2c1` [CP-724714] gave a % of control in assay [1] of 75%.
For the compound `N#Cc1cccc(-c2c[nH]c3ncnc(N4CCOCC4)c23)c1`, the % of control in assay [2] is 12%.
In assay [3], `O=C(NOC[C@H](O)CO)c1ccc(F)c(F)c1Nc1ccc(I)cc1F` registered a % of control of 100%.
For the compound `C=CC(=O)Nc1ccc(C(=O)Nc2[nH]nc3c2CN(C(=O)N[C@H](CN(C)C)c2ccccc2)C3(C)C)cc1`, the % of engagement in assay [4] was -18.6%.
